Consider three compounds from ChEMBL document CHEMBL1131355 (Bioorg Med Chem Lett, 1998).

For the assay, the target named is 5-hydroxytryptamine receptor 2A (Rattus norvegicus, UniProt P14842). Briefly: biochemical. In kind it is tissue-based, Frontal cortex, Membrane.
5-hydroxytryptamine receptor 2A, sequence (P14842 whole entry): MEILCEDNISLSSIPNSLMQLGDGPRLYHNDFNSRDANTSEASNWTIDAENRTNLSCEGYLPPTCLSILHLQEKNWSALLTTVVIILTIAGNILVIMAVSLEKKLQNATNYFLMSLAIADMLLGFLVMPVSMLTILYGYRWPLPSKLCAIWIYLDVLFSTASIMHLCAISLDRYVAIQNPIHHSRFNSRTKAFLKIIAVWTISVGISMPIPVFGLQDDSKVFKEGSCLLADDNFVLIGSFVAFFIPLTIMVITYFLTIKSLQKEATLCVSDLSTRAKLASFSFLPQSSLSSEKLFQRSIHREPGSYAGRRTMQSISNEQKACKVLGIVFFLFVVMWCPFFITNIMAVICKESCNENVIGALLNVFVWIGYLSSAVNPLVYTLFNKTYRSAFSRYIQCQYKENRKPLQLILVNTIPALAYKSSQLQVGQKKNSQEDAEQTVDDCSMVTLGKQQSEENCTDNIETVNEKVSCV
Description: Compound was measured for the inhibition of [3H]ketanserin binding to rat frontal cortex membrane (5-HT2A receptor)
For orientation: Ki means the equilibrium dissociation constant of an inhibitor or competing ligand from its target. Read a high Ki as a looser hold on the target. The compound `O=C1CC(CN2CCC(C(=O)c3ccc(F)cc3)CC2)Cc2[nH]c3ccccc3c21` (stereo not drawn) showed an inhibitory constant (Ki) of 9.12 nM.

On to `O=C1CC(CN2CCC(c3noc4cc(F)ccc34)CC2)Cc2[nH]c3ccccc3c21` (stereo not drawn), for which the affinity, expressed as Ki, was 1.58 nM.

On to `COc1ccccc1N1CCN(CC2CC(=O)c3c([nH]c4ccccc34)C2)CC1` (stereo not drawn), for which the affinity corresponds to a Ki of 631 nM.
